Where two headings read alike, the source gives them in different places.

Series [1] has as its system Staphylococcus aureus ATCC 29213. As to the kind of experiment: microbe, parasite or virus in culture. The series is classed as cell-based. The note with it: Staphylococcus aureus, Protocol 1.
For series [2], the system named is Enterococcus faecalis ATCC 29212. Nature of the series: Gyrase MIC determination using microdilution broth method (Protocol 1). The series is classed as cell-based. The note with it: Enterococcus faecalis, ATCC29212, Enterococcus faecalis ATCC 29212, with 3% Laked Horse Blood, read-out: MIC. (In general: Dilution methods test growth across graded concentrations, often in twofold steps.)

The subject of series [3] is Enterococcus faecium ATCC 49624. The description is as above. The format is cell-based. The note with it: ATCC49624, Enterococcus faecium ATCC 49624 with 3% Laked Horse Blood, read-out: MIC.
For the next series, the system named is Escherichia coli AG100. As to the kind of experiment: Gyrase MIC determination against Gram negatives using microdilution broth method (Protocol 2). The format is cell-based. To be noted: read-out: MIC. How it is done: Compounds of this invention were tested for antimicrobial activity by susceptibility testing in liquid media. […] The specific protocols used were as follows:
Protocol 2: Gyrase MIC Determination of Compounds Against Gram Negatives Using Microdilution Broth Method
Strains (MHII Media for all; Broth and Agar): • 1. Escherichia coli AG100 WT • 2. Escherichia coli AG100 tolC • 3. […] Haemophilus influenzae Rd0894 (AcrA−)
Inoculum Prep: • 1. Using the BBL Prompt kit, picked 5 big or 10 small, well separated colonies from cultures grown on agar medium and inoculated 1 mL sterile saline that came with the kit. • 2. Vortexed the wells for ˜30 s to give a suspension of ˜10^8 cells/mL. Actual density could be confirmed by plating out dilutions of this suspension. • 3. Diluted the suspension 1/100 by transferring 0.15 mL of cells into 15 mL (˜10^6 cells/mL) sterile broth (see below) for each plate of compounds tested, swirled to mix. […] Used 50 μl cells (˜5×10^4 cells) to inoculate each microtiter well containing 50 μl of the drug diluted in broth (see below).
Drug Dilutions, Inoculation, MIC Determination: • 1. […] Diluted drug/compound stocks to 200× desired final concentration in 50 μL DMSO. If starting concentration of MICs was 8 μg/mL final concentration, then required 6.25 μL of stock+43.75 μL DMSO. Each 200× stock was placed in a separate row of column 1 of a new 96 well microtiter plate. • 3. Added 25 μL of DMSO to columns 2-12 of all rows of the microtiter plate containing 200× compound stocks and serially diluted 25 μL from column 1 through column 11, changed tips after each column. i.e. 25 μL compound+25 μL DMSO=2× dilution. Left “no compound” DMSO well at the end of the series for control. • 4. For each strain tested, prepared two microtiter plates with 50 μL of MHII broth using a Matrix pipettor. • 5. Transferred 0.5 μL of each dilution (w/Matrix auto-pipettor) to 50 μL of medium/microtiter well prior to the addition of 50 μl of cells. The usual starting concentration of compound was 8 μg/mL after the 1/200 dilution into medium+cells−compound concentrations decreased in 2× steps across the rows of a microtiter plate. All MICs were done in duplicate. • 6. All wells were inoculated with 50 μl of diluted cell suspension (see above) to a final volume of 100 μl. • 7. After inoculum was added, each well was mixed thoroughly with a manual multichannel pipettor; same tips were used going from low to high concentration of drug in the same microtiter plate. • 8. Plates were incubated at 37° C. for at least 18 hours. • 9.
Examined the test plates after the correct incubation time and read the MIC endpoint at the concentration where a marked reduction occurred in the appearance of growth on the test plate as compared to that of growth on the positive control plates.

The nature of series [4]: Stability of the solid forms (net increase in total impurities at 40 C/30% RH). The format is physicochemical. The note with it: 17 days.
Series [5] relates to Streptococcus pneumoniae ATCC 10015. Nature of the series: Gyrase MIC determination using microdilution broth method (Protocol 1). The note with it: ATCC10015, Streptococcus pneumoniae ATCC 10015, with 3% Laked Horse Blood. The format is cell-based.

Take `CCNC(=O)Nc1nc2cc(-c3cnc(C(C)(C)OP(=O)([O-])[O-])nc3)c(F)c([C@H]3CCCO3)c2[nH]1.[Na+].[Na+]` [Form X, disodium (R)-2-(5-(2-(3-ethylureido)-6-fluoro-7-(tetrahydrofuran-2-yl)-1H-benzo[d]imidazol-5-yl)pyrimidin-2-yl)propan-2-yl phosphate]: the MIC in series [1] (ATCC29213, Staphylococcus aureus ATCC 29213 GyrB T173I) was over 16 µg/mL; in series [1] (ATCC29213, Staphylococcus aureus ATCC 29213 with 50% Mouse Serum), 2 µg/mL; in series [2], 2 µg/mL; in series [3], 4 µg/mL; in the series on Escherichia coli AG100 (Escherichia coli AG100 WT), over 16 µg/mL; in the series with Escherichia coli AG100 (Escherichia coli, AG100, Escherichia coli AG100 tolC), 2 µg/mL. The MIC in series [5] is 0.25 µg/mL. Further, the “Net % increase in total impurities” value in series [4] is recorded as 0.59%.

The values are drawn from patent US9018216B2, “Solid forms of (R)-2-(5-(2-(3-ethylureido)-6-fluoro-7-(tetrahydrofuran-2-yl)-1H-benzo[d]imidazol-5-yl)pyrimidin-2-yl)propan-2-yl dihydrogen phosphate and salts thereof” (priority 2012, dated 2015).
